54 molecules from patent publication US9150568B2, “Compositions and methods for modulating FXR” (NOVARTIS AG, priority 2010, dated 2015) can be followed below.

Usually EC50 stands for the concentration needed to bring the measured effect to its halfway point.

This assay deals with T1, human Farnesoid X Receptor (FXR) ligand binding domain (GST-FXR LBD) (Homo sapiens, UniProt Q96RI1).
T1 construct: purchased Invitrogen
T1 sequence (Q96RI1 193-472 isoform Q96RI1-2): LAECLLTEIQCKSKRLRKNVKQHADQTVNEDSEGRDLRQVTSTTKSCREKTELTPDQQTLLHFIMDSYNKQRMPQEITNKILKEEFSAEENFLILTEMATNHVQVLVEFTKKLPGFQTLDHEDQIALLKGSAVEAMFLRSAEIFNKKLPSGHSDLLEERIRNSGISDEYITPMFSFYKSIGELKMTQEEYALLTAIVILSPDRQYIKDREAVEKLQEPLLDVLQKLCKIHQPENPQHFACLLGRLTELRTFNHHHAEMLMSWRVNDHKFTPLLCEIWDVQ
Description: Human GST-FXR LBD co-activator interaction assay (HTRF). Type of assay: biochemical. To be noted: GST-FXR LBD / biotin-SRC-1 peptide FRET; response relative to GW4064; read-out: FXR Co-activator interaction assay (EC50). The method in brief: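 FRET (HTRF) read-out of ligand-induced binding between GST-FXR LBD and an SRC-1 peptide, detected with anti-GST cryptate and streptavidin-XL665 in buffer with 50 mM KF. Response % was normalized to DMSO and to the maximal GW4064 response. EC50 came from a four-parameter fit.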
`COC(=O)c1cnc(N2[C@@H]3CC[C@H]2C[C@@H](OCc2c(-c4c(F)cccc4F)noc2C2CC2)C3)cc1C(F)(F)F` [Example 22-16A]: the EC50 is 160 nM. On to `O=C(O)c1cnc(N2C3CC[C@H]2CC(OCc2c(-c4c(F)cccc4F)noc2C2CC2)C3)cc1C(F)(F)F` (stereo partly drawn) [Example 22-16B], for which the concentration for a half-maximal effect (EC50) was found to be 10 nM. For the molecule `COC(=O)c1cnc(N2[C@@H]3CC[C@H]2C[C@@H](OCc2c(-c4c(F)cccc4F)noc2C2CC2)C3)c(C2CC2)c1` [Example 22-17A], the EC50 was determined as 65 nM.

Turning to `O=C(O)c1cnc(N2[C@@H]3CC[C@H]2C[C@@H](OCc2c(-c4c(F)cccc4F)noc2C2CC2)C3)c(C2CC2)c1` [Example 22-17B], the EC50 amounted to 3 nM. As to `COC(=O)c1cc(C)nc(N2C3CC[C@H]2CC(OCc2c(-c4c(F)cccc4F)noc2C2CC2)C3)n1` (stereo partly drawn) [Example 22-18A], the EC50 is 43 nM. Regarding `Cc1cc(C(=O)O)nc(N2C3CC[C@H]2CC(OCc2c(-c4c(F)cccc4F)noc2C2CC2)C3)n1` (stereo partly drawn) [Example 22-18B], the 50% effective concentration (EC50) came to 18 nM. Regarding `COC(=O)c1cc(N2C3CC[C@H]2CC(OCc2c(-c4c(F)cccc4F)noc2C2CC2)C3)nc(Cl)n1` (stereo partly drawn) [Example 22-19], the EC50 amounted to 57 nM. For the molecule `COC(=O)c1cc(Cl)nc(N2C3CC[C@H]2CC(OCc2c(-c4c(F)cccc4F)noc2C2CC2)C3)n1` (stereo partly drawn) [Example 22-20], the EC50 was determined as 25 nM.

For `COC(=O)c1cnc(N2C3CC[C@H]2CC(OCc2c(-c4c(F)cccc4F)noc2C2CC2)C3)c(Br)c1` (stereo partly drawn) [Example 22-21], the concentration for a half-maximal effect (EC50) was 29 nM.

On to `COC(=O)c1cc(F)c(N2C3CC[C@H]2CC(OCc2c(-c4ccccc4OC(F)(F)F)noc2C2CC2)C3)c(F)c1` (stereo partly drawn) [Example 24-1A], for which the concentration for a half-maximal effect (EC50) was determined as 40 nM. Consider `O=C(O)c1cc(F)c(N2C3CC[C@H]2CC(OCc2c(-c4ccccc4OC(F)(F)F)noc2C2CC2)C3)c(F)c1` (stereo partly drawn) [Example 24-1B], for which the concentration giving a half-maximal response (EC50) was 8 nM. Consider `COC(=O)c1cc(F)c(N2C3CC[C@H]2CC(OCc2c(-c4ccccc4OC(F)F)noc2C2CC2)C3)c(F)c1` (stereo partly drawn) [Example 25-1A], for which the EC50 was 28 nM.

Turning to `O=C(O)c1cc(F)c(N2C3CC[C@H]2CC(OCc2c(-c4ccccc4OC(F)F)noc2C2CC2)C3)c(F)c1` (stereo partly drawn) [Example 25-1B], the EC50 came to 3 nM. For `COC(=O)c1cc(F)c(N2C3CC[C@H]2CC(OCc2c(-c4ccccc4C(F)(F)F)noc2C2CC2)C3)c(F)c1` (stereo partly drawn) [Example 25-2A], the half-maximal effective concentration (EC50) was determined as 420 nM. As for `O=C(O)c1cc(F)c(N2C3CC[C@H]2CC(OCc2c(-c4ccccc4C(F)(F)F)noc2C2CC2)C3)c(F)c1` (stereo partly drawn) [Example 25-2B], the 50% effective concentration (EC50) is 5 nM.

On to `COC(=O)c1ccc(N2C3CC[C@H]2CC(OCc2c(-c4c(F)cccc4F)noc2C2CC2)C3)c(F)c1` (stereo partly drawn) [Example 25-3A], for which the EC50 was found to be 80 nM.

As for `O=C(O)c1ccc(N2C3CC[C@H]2CC(OCc2c(-c4c(F)cccc4F)noc2C2CC2)C3)c(F)c1` (stereo partly drawn) [Example 25-3B], the EC50 amounted to 0.9 nM. Take `O=C(O)c1cc(F)c(N2[C@@H]3CC[C@H]2C[C@@H](OCc2c(-c4c(F)cccc4F)noc2C2CC2)C3)c(F)c1` [Example 25-4B]: the EC50 came out at 2 nM. Take `COC(=O)c1ccc(N2C3CC[C@H]2CC(OCc2c(-c4ccccc4C(F)(F)F)noc2C2CC2)C3)c(F)c1` (stereo partly drawn) [Example 25-5A]: the concentration for a half-maximal effect (EC50) was determined as 280 nM.

Consider `O=C(O)c1ccc(N2C3CC[C@H]2CC(OCc2c(-c4ccccc4C(F)(F)F)noc2C2CC2)C3)c(F)c1` (stereo partly drawn) [Example 25-5B], for which the half-maximal effective concentration (EC50) worked out at 1 nM. Take `COC(=O)c1ccc(N2C3CC[C@H]2CC(OCc2c(-c4ccccc4OC(F)F)noc2C2CC2)C3)c(F)c1` (stereo partly drawn) [Example 25-6A]: the EC50 came out at 9 nM. `O=C(O)c1ccc(N2C3CC[C@H]2CC(OCc2c(-c4ccccc4OC(F)F)noc2C2CC2)C3)c(F)c1` (stereo partly drawn) [Example 25-6B]: the EC50 turned out to be 3 nM. Take `NC(=O)c1ccc(N2C3CC[C@H]2CC(OCc2c(-c4ccccc4OC(F)F)noc2C2CC2)C3)c(F)c1` (stereo partly drawn) [Example 27]: the concentration giving a half-maximal response (EC50) stood at 2 nM. `O=C(O)c1nsc2cc(N3C4CC[C@H]3CC(OCc3c(-c5ccccc5OC(F)(F)F)noc3C3CC3)C4)ccc12` (stereo partly drawn) [Example 28-1B, 6-(3-((5-Cyclopropyl-3-(2-(trifluoromethoxy)phenyl)isoxazol-4-yl)methoxy)-8-azabicyclo[3.2.1]octan-8-yl)benzo[d]isothiazole-3-carboxylic acid]: the EC50 was found to be 0.6 nM. In the case of `O=C(O)c1cnc2ccc(N3C4CC[C@H]3CC(OCc3c(-c5ccccc5OC(F)(F)F)noc3C3CC3)C4)cn12` (stereo partly drawn) [Example 28-2], the 50% effective concentration (EC50) worked out at 16 nM. As for `O=C(O)c1cnc2cc(N3C4CC[C@H]3CC(OCc3c(-c5ccccc5OC(F)(F)F)noc3C3CC3)C4)ccc2c1` (stereo partly drawn) [Example 28-3], the figure is 0.8 nM; as for `Cn1c(C(=O)O)cc2ccc(N3C4CC[C@H]3CC(OCc3c(-c5ccccc5OC(F)(F)F)noc3C3CC3)C4)cc21` (stereo partly drawn) [Example 28-4], 2 nM; as for `O=C(O)c1ccc(N2C3CC[C@H]2CC(OCc2c(-c4ccccc4OC(F)(F)F)noc2C2CC2)C3)cc1` (stereo partly drawn) [Example 28-6], 1.7 nM. On to `O=C(O)C1(c2ccc(N3C4CC[C@H]3CC(OCc3c(-c5ccccc5OC(F)(F)F)noc3C3CC3)C4)cc2)CC1` (stereo partly drawn) [Example 28-7], for which the EC50 turned out to be 21 nM.

On to `Cc1c(N2[C@@H]3CC[C@H]2C[C@@H](OCc2c(-c4ccccc4C4CC4)noc2C2CC2)C3)ccc2oc(C(=O)O)cc12` [Example 28-8], for which the EC50 was 10.4 nM.

Consider `Cc1c(N2C3CC[C@H]2CC(OCc2c(-c4ccccc4Cl)noc2C2CC2)C3)ccc2oc(C(=O)O)cc12` (stereo partly drawn) [Example 28-9], for which the EC50 is 0.3 nM. With `Cc1c(N2C3CC[C@H]2CC(OCc2c(-c4c(F)cccc4F)noc2C2CC2)C3)ccc2oc(C(=O)O)cc12` (stereo partly drawn) [Example 28-10], the EC50 is 0.9 nM. On to `Cc1c(N2C3CC[C@H]2CC(OCc2c(-c4ccccc4OC(F)(F)F)noc2C2CC2)C3)ccc2oc(C(=O)O)cc12` (stereo partly drawn) [Example 28-11], for which the half-maximal effective concentration (EC50) was 1.3 nM. Turning to `Cc1c(N2C3CC[C@H]2CC(OCc2c(-c4ccccc4C(F)(F)F)noc2C2CC2)C3)ccc2oc(C(=O)O)cc12` (stereo partly drawn) [Example 28-12], the EC50 came to 2.8 nM. Consider `O=C(O)c1cc2cc(N3C4CC[C@H]3CC(OCc3c(-c5ccccc5OC(F)(F)F)noc3C3CC3)C4)ccc2s1` (stereo partly drawn) [Example 28-13], for which the EC50 stood at 7.4 nM. As for `O=C(O)c1cc2cc(N3C4CC[C@H]3CC(OCc3c(-c5ccccc5OC(F)(F)F)noc3C3CC3)C4)ccc2o1` (stereo partly drawn) [Example 28-14], the figure is 4.6 nM. In the case of `O=C(O)c1cc2ccc(N3C4CC[C@H]3CC(OCc3c(-c5ccccc5OC(F)(F)F)noc3C3CC3)C4)cc2o1` (stereo partly drawn) [Example 28-15], the EC50 is 3.4 nM. The same measure for `Cn1nc(C(=O)O)c2cc(N3C4CC[C@H]3CC(OCc3c(-c5ccccc5OC(F)(F)F)noc3C3CC3)C4)ccc21` (stereo partly drawn) [Example 28-16]: 63 nM; for `O=C(O)c1cnc2c(N3C4CC[C@H]3CC(OCc3c(-c5ccccc5OC(F)(F)F)noc3C3CC3)C4)cccc2c1` (stereo partly drawn) [Example 28-17]: 9.8 nM.

Turning to `O=C(O)c1noc2cc(N3C4CC[C@H]3CC(OCc3c(-c5ccccc5OC(F)(F)F)noc3C3CC3)C4)ccc12` (stereo partly drawn) [Example 28-18], the concentration giving a half-maximal response (EC50) was determined as 8.2 nM. Consider `Cn1c(C(=O)O)cc2cc(N3C4CC[C@H]3CC(OCc3c(-c5ccccc5OC(F)(F)F)noc3C3CC3)C4)ccc21` (stereo partly drawn) [Example 28-19], for which the EC50 came to 1.5 nM.

As to `O=C(O)c1nsc2cc(N3C4CC[C@H]3CC(OCc3c(-c5ccccc5C(F)(F)F)noc3C3CC3)C4)ccc12` (stereo partly drawn) [Example 28-21], the EC50 was determined as 2.2 nM.

On to `O=C(O)c1nsc2cc(N3[C@@H]4CC[C@H]3C[C@@H](OCc3c(-c5ccccc5C5CC5)noc3C3CC3)C4)ccc12` [Example 28-22], for which the EC50 was 0.2 nM.

Regarding `O=C(O)c1nsc2cc(N3C4CC[C@H]3CC(OCc3c(-c5ccccc5OC(F)(F)F)noc3C3CC3)C4)c(F)cc12` (stereo partly drawn) [Example 28-23], the EC50 stood at 0.5 nM. Consider `O=C(O)c1cn2ccc(N3C4CCC3CC(OCc3c(-c5ccccc5OC(F)(F)F)noc3C3CC3)C4)cc2n1` (stereo not drawn) [Example 28-24], for which the half-maximal effective concentration (EC50) stood at 24 nM. Regarding `Cn1nc(C(=O)O)c2ccc(N3C4CC[C@H]3CC(OCc3c(-c5ccccc5OC(F)(F)F)noc3C3CC3)C4)cc21` (stereo partly drawn) [Example 28-25], the 50% effective concentration (EC50) is 1.1 nM. Take `Cn1nc(C(=O)O)c2ccc(N3[C@@H]4CC[C@H]3C[C@@H](OCc3c(-c5ccccc5C(F)(F)F)noc3C3CC3)C4)cc21` [Example 28-26]: the half-maximal effective concentration (EC50) was 1.2 nM. The same measure for `O=C(O)c1cc(F)c2nc(N3C4CC[C@H]3CC(OCc3c(C5C6CCCC65)noc3C3CC3)C4)sc2c1` (stereo partly drawn) [Example 29-1]: 14 nM; for `CC12CCCC1C2c1noc(C2CC2)c1COC1CC2CC[C@@H](C1)N2c1nc2c(F)cc(C(=O)O)cc2s1` (stereo partly drawn) [Example 29-2]: 8 nM; for `O=C(O)c1cc(F)c2nc(N3[C@@H]4CC[C@H]3C[C@@H](OCc3c(C5CCCC5)noc3C3CC3)C4)sc2c1` [Example 29-3]: 11 nM. Take `O=C(O)c1cc(F)c2nc(N3[C@@H]4CC[C@H]3C[C@@H](OCc3c(C5CC6(CC6)C5)noc3C3CC3)C4)sc2c1` [Example 29-4]: the EC50 is 11 nM. As to `C[C@@H]1C(c2noc(C3CC3)c2COC2CC3CC[C@@H](C2)N3c2nc3c(F)cc(C(=O)O)cc3s2)C[C@@H]2C[C@H]1C2(C)C` (stereo partly drawn) [Example 29-5], the half-maximal effective concentration (EC50) came out at 6 nM. As for `O=C(O)c1cc(F)c2nc(N3C4CC[C@H]3CC(OCc3c(C5CCCCC56CC6)noc3C3CC3)C4)sc2c1` (stereo partly drawn) [Example 29-6], the 50% effective concentration (EC50) is 2 nM. `O=C(O)c1cc(F)c2nc(N3C4CC[C@H]3CC(OCc3c(C5CCC6CC6C5)noc3C3CC3)C4)sc2c1` (stereo partly drawn) [Example 29-7]: the concentration giving a half-maximal response (EC50) is 5 nM.
